Data published in PubChem BioAssay AID328 (DTP/NCI, 2004).
“And” between values parts separate entries of the source, which are not always exact repeats. Equal entries are not always repeated. Inconclusive results and toxic doses are left out. The calls were made as follows: active = survival T/C of 150% or more; inactive = T/C below 125% in these data.

System: BDF1 mice, P388 leukemia ip, median survival T/C
Experiment: NCI In Vivo Anticancer Drug Screen. Data for tumor model P388 Leukemia (intraperitoneal) in B6D2F1 (BDF1) mice
Settings: endpoint: median survival time, higher = longer survival
Procedure, shortened: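 Compound-treated tumour-bearing mice were compared with vehicle-treated controls. Survival was recorded, and the value is the treated-group measurement divided by the control-group measurement (T/C).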

[1] = dose: 200.0 mg/kg/injection, schedule: Q01DX009 (ip), vehicle: Klucel (hydroxypropylcellulose) (HPC)
[2] = dose: 100.0 mg/kg/injection, schedule: Q04DX003 (ip), vehicle: Klucel (hydroxypropylcellulose) (HPC)
[3] = dose: 200.0 mg/kg/injection, schedule: Q04DX003 (ip), vehicle: Klucel (hydroxypropylcellulose) (HPC)
[4] = dose: 100.0 mg/kg/injection, schedule: Q01DX009 (ip), vehicle: saline with Tween-80
[5] = dose: 200.0 mg/kg/injection, schedule: Q01DX009 (ip), vehicle: saline with Tween-80
[6] = dose: 400.0 mg/kg/injection, schedule: Q01DX009 (ip), vehicle: saline with Tween-80
[7] = dose: 12.5 mg/kg/injection, schedule: Q01DX009 (ip), vehicle: saline with Tween-80
[8] = dose: 50.0 mg/kg/injection, schedule: Q01DX009 (ip), vehicle: saline with Tween-80
[9] = dose: 100.0 mg/kg/injection, schedule: Q04DX003 (ip), vehicle: saline with Tween-80
[10] = dose: 200.0 mg/kg/injection, schedule: Q04DX003 (ip), vehicle: saline with Tween-80
[11] = dose: 400.0 mg/kg/injection, schedule: Q04DX003 (ip), vehicle: saline with Tween-80
[12] = dose: 50.0 mg/kg/injection, schedule: Q04DX003 (ip), vehicle: saline with Tween-80
[13] = dose: 400.0 mg/kg/injection, schedule: Q04DX003 (ip), vehicle: Klucel (hydroxypropylcellulose) (HPC)

Measured: T/C

Cc1ccc(S(=O)(=O)N/N=C/C(O)CO)cc1 (centres undefined)
inactive: dose: 3.13 mg/kg/injection, schedule: Q01DX009 (ip), vehicle: other 98 % of control | dose: 6.25 mg/kg/injection, schedule: Q01DX009 (ip), vehicle: other 91 % of control | dose: 12.5 mg/kg/injection, schedule: Q01DX009 (ip), vehicle: other 98 % of control and 101 % of control | dose: 25.0 mg/kg/injection, schedule: Q01DX009 (ip), vehicle: other 98 % of control | dose: 50.0 mg/kg/injection, schedule: Q01DX009 (ip), vehicle: other 96 % of control | dose: 100.0 mg/kg/injection, schedule: Q01DX009 (ip), vehicle: other 99 % of control | dose: 200.0 mg/kg/injection, schedule: Q01DX009 (ip), vehicle: other 98 % of control | dose: 400.0 mg/kg/injection, schedule: Q01DX009 (ip), vehicle: other 102 % of control

COc1cc(C)c(C2NC(=O)c3ccccc3N2)cc1C (centres undefined)
active: [1] 155 % of control and 170 % of control | dose: 265.0 mg/kg/injection, schedule: Q01DX009 (ip), vehicle: Klucel (hydroxypropylcellulose) (HPC) 150 % of control

ClC(Cl)(Cl)c1cccc(C(Cl)(Cl)Cl)c1
inactive: [2] 115 % of control | [3] 120 % of control | dose: 266.0 mg/kg/injection, schedule: Q04DX003 (ip), vehicle: Klucel (hydroxypropylcellulose) (HPC) 90 % of control

CCN1C=C/C(=C/c2cc3scc(-c4ccccc4)[n+]3c3ccccc23)c2ccccc21
inactive: dose: 0.08 mg/kg/injection, schedule: Q01DX009 (ip), vehicle: saline 100 % of control | dose: 0.16 mg/kg/injection, schedule: Q01DX009 (ip), vehicle: saline 108 % of control | dose: 0.32 mg/kg/injection, schedule: Q01DX009 (ip), vehicle: saline 120 % of control

NC(C(=O)O)C(O)c1ccc2c(c1)OCO2 (centres undefined)
inactive: [4] 95 % of control | [5] 105 % of control | [6] 95 % of control

CC(C(=O)O)C(=O)O.[NH-]C1CCCCC1[NH-].[Pt+2]
active: dose: 50.0 mg/kg/injection, schedule: Q04DX002 (ip), vehicle: Klucel (hydroxypropylcellulose) (HPC) 150 % of control | dose: 200.0 mg/kg/injection, schedule: Q04DX002 (ip), vehicle: Klucel (hydroxypropylcellulose) (HPC) 203 % of control

CCO/C=C1\SC(=S)N(c2ccco2)C1=O
active: dose: 22.0 mg/kg/injection, schedule: Q01DX009 (ip), vehicle: saline with Tween-80 150 % of control
inactive: dose: 5.56 mg/kg/injection, schedule: Q01DX009 (ip), vehicle: saline with Tween-80 104 % of control | dose: 8.33 mg/kg/injection, schedule: Q01DX009 (ip), vehicle: saline with Tween-80 104 % of control | [7] 108 % of control | dose: 18.7 mg/kg/injection, schedule: Q01DX009 (ip), vehicle: saline with Tween-80 116 % of control | dose: 30.0 mg/kg/injection, schedule: Q01DX009 (ip), vehicle: saline 116 % of control | dose: 44.0 mg/kg/injection, schedule: Q01DX009 (ip), vehicle: saline 100 % of control | [8] 100 % of control | dose: 66.0 mg/kg/injection, schedule: Q01DX009 (ip), vehicle: saline 116 % of control | dose: 100.0 mg/kg/injection, schedule: Q01DX009 (ip), vehicle: saline 116 % of control

Cn1cnnc1N
inactive: dose: 100.0 mg/kg/injection, schedule: Q01DX001 (ip), vehicle: saline 100 % of control | dose: 200.0 mg/kg/injection, schedule: Q01DX001 (ip), vehicle: saline 95 % of control | dose: 400.0 mg/kg/injection, schedule: Q01DX001 (ip), vehicle: saline 104 % of control

CC1(C)COC(c2ccc(C(C)(C)C)cc2C(O)(c2cc(C(C)(C)C)ccc2C2=NC(C)(C)CO2)c2cc(C(C)(C)C)ccc2C2=NC(C)(C)CO2)=N1
inactive: [9] 92 % of control and 94 % of control | [10] 94 % of control | [11] 90 % of control and 94 % of control

C[C@]12CCC(=O)C=C1CC[C@@H]1[C@@H]2[C@@H](O)C[C@@]2(C)[C@H]1CC[C@]2(O)C(=O)COC(=O)COCC(=O)O
inactive: [4] 109 % of control | [5] 109 % of control | [6] 109 % of control

Cc1ccc(/C=C/C(=O)c2ccc(Cl)cc2)cc1
inactive: [4] 90 % of control | [9] 95 % of control | [5] 90 % of control | [10] 109 % of control | [6] 100 % of control | [11] 109 % of control

CCC[CH2][Sn]1([CH2]CCC)[S]CC[N]1S(=O)(=O)c1ccc(C)cc1
inactive: dose: 3.0 mg/kg/injection, schedule: Q01DX009 (ip), vehicle: gum acacia 119 % of control

C#CCCC#C
inactive: [12] 100 % of control | dose: 67.0 mg/kg/injection, schedule: Q01DX005 (ip), vehicle: saline with Tween-80 96 % of control | dose: 100.0 mg/kg/injection, schedule: Q01DX005 (ip), vehicle: saline with Tween-80 115 % of control | [9] 104 % of control | dose: 150.0 mg/kg/injection, schedule: Q01DX005 (ip), vehicle: saline with Tween-80 92 % of control | [5] 103 % of control | [10] 108 % of control | [6] 111 % of control

Clc1nc2n[nH]nc2nc1Cl
inactive: dose: 3.13 mg/kg/injection, schedule: Q01DX009 (ip), vehicle: saline 100 % of control | dose: 6.25 mg/kg/injection, schedule: Q01DX009 (ip), vehicle: saline 95 % of control

CCn1c(C)nc2cc(C(N)=O)ccc21
inactive: [12] 95 % of control | [9] 90 % of control | [10] 113 % of control

NC(=O)Oc1cc(OC(N)=O)cc(N(CCCl)CCCl)c1
active: [7] 158 % of control | dose: 25.0 mg/kg/injection, schedule: Q01DX009 (ip), vehicle: saline with Tween-80 181 % of control | dose: 25.0 mg/kg/injection, schedule: Q04DX003 (ip), vehicle: other 179 % of control | [8] 168 % of control | dose: 50.0 mg/kg/injection, schedule: Q04DX003 (ip), vehicle: other 186 % of control | dose: 100.0 mg/kg/injection, schedule: Q04DX003 (ip), vehicle: other 216 % of control

O=S(=O)(Nc1ccc(NS(=O)(=O)c2ccccc2)c(S(=O)(=O)c2ccccc2)c1)c1ccccc1
inactive: dose: 100.0 mg/kg/injection, schedule: Q01DX001 (ip), vehicle: saline with Tween-80 100 % of control | dose: 200.0 mg/kg/injection, schedule: Q01DX001 (ip), vehicle: saline with Tween-80 100 % of control | dose: 400.0 mg/kg/injection, schedule: Q01DX001 (ip), vehicle: saline with Tween-80 100 % of control

O=C1CSC(c2ccccc2)N1 (centres undefined)
inactive: dose: 100.0 mg/kg/injection, schedule: Q01DX009 (ip), vehicle: Klucel (hydroxypropylcellulose) (HPC) 103 % of control | [2] 100 % of control | [1] 103 % of control | dose: 400.0 mg/kg/injection, schedule: Q01DX009 (ip), vehicle: Klucel (hydroxypropylcellulose) (HPC) 96 % of control | [13] 96 % of control

CCN1/C(=C/C=C/c2oc3ccccc3[n+]2CC)Oc2ccccc21
active: dose: 0.6 mg/kg/injection, schedule: Q01DX009 (ip), vehicle: Klucel (hydroxypropylcellulose) (HPC) 165 % of control
inactive: dose: 0.13 mg/kg/injection, schedule: Q01DX010 (ip), vehicle: saline 118 % of control | dose: 0.15 mg/kg/injection, schedule: Q01DX009 (ip), vehicle: saline 108 % of control | dose: 0.25 mg/kg/injection, schedule: Q01DX010 (ip), vehicle: saline 118 % of control | dose: 37.5 micrograms/kg/injection, schedule: Q01DX009 (ip), vehicle: Klucel (hydroxypropylcellulose) (HPC) 108 % of control | dose: 75.0 micrograms/kg/injection, schedule: Q01DX009 (ip), vehicle: Klucel (hydroxypropylcellulose) (HPC) 104 % of control | dose: 150.0 micrograms/kg/injection, schedule: Q01DX009 (ip), vehicle: Klucel (hydroxypropylcellulose) (HPC) 116 % of control

ClC(Cl)(Cl)C1OCOC(C(Cl)(Cl)Cl)OCO1 (centres undefined)
inactive: [2] 90 % of control | [3] 100 % of control | [13] 90 % of control
